Results: patent publication US20250108038A1 (priority 2023, published 2025)
Several values for one entry are separate records, joined by “and”; a condition that tells them apart may be missing. Equal values may be shown once.

Test system: Long Evans rats
Test: Behavioral satiety sequence (BSS)
Assay type: in vivo, Long Evans rat
Details: for BSS scoring A (active), Time Bin 13 (60-65 TOTAL), AVG / BSS scoring A (active), Time Bin 14 (65-70 TOTAL), AVG / BSS scoring A (active), Time Bin 15 (70-75 TOTAL), AVG / BSS scoring A (active), Time Bin 16 (75-80 TOTAL), AVG / BSS scoring A (active), Time Bin 17 (80-85 TOTAL), AVG / BSS scoring A (active), Time Bin 18 (85-90 TOTAL), AVG / BSS scoring E (eating/drinking), Time Bin 13 (60-65 TOTAL), AVG / BSS scoring E (eating/drinking), Time Bin 14 (65-70 TOTAL), AVG / BSS scoring E (eating/drinking), Time Bin 15 (70-75 TOTAL), AVG / BSS scoring E (eating/drinking), Time Bin 16 (75-80 TOTAL), AVG / BSS scoring E (eating/drinking), Time Bin 17 (80-85 TOTAL), AVG / BSS scoring E (eating/drinking), Time Bin 18 (85-90 TOTAL), AVG / BSS scoring G (grooming), Time Bin 13 (60-65 TOTAL), AVG / BSS scoring G (grooming), Time Bin 14 (65-70 TOTAL), AVG / BSS scoring G (grooming), Time Bin 15 (70-75 TOTAL), AVG / BSS scoring G (grooming), Time Bin 16 (75-80 TOTAL), AVG / BSS scoring G (grooming), Time Bin 17 (80-85 TOTAL), AVG / BSS scoring G (grooming), Time Bin 18 (85-90 TOTAL), AVG / BSS scoring R (resting), Time Bin 13 (60-65 TOTAL), AVG / BSS scoring R (resting), Time Bin 14 (65-70 TOTAL), AVG / BSS scoring R (resting), Time Bin 15 (70-75 TOTAL), AVG / BSS scoring R (resting), Time Bin 16 (75-80 TOTAL), AVG / BSS scoring R (resting), Time Bin 17 (80-85 TOTAL), AVG / BSS scoring R (resting), Time Bin 18 (85-90 TOTAL), AVG: AVG of animals LT-1 to LT-12
Text: The Behavioural Satiety Sequence (BSS) is a technique used to evaluate physiological satiety. It is based on the expression of a sequence of behaviors including eating, grooming, locomotor activity, followed by resting, which are typically observed in rodents post-ingestion (Halford et al, 1998, Pharmacology Biochemistry and Behaviour. 61(2): 159-168). The BSS is a widely used model for determining the effects of novel pharmaceuticals on food intake and measures of satiety in rodents (Oliveira et al, 2011, Revista de Nutrição. 24(4) 619-628), and to discriminate the cause of reduced food intake following pharmacological manipulation. For example, treatments that may reduce food intake by non-specific mechanisms, such as immobility, malaise, and taste adulteration, will disrupt this sequence (Halford et al, 1998, Pharmacology Biochemistry and Behaviour. 61(2): 159-168).
Specifically, 12 male Long-Evans rats were food-deprived for 22 h with a 2 h feeding period each day. Rats were trained to consume daily food during the 2 h period over 25 days. The testing phase was initiated once the rats consistently consumed 16-18 g of food per day with ≤10% variance in amount of feed consumed. Feeding took place in designated individual boxes in a quiet room separate from the housing room. Continuous remote monitoring via video camera during feeding was used to assess the BSS. Food consumption was measured by weighing the total available food before and after the 2 h feeding window, correcting for spillage. Lorcaserin (1 mg/kg) was included as a reference control (Higgins et al, 2011, Neuropsychopharmacology. 37(5): 1177-1191). Subjects were tested using a repeated-measures, Latin square design with 2-3 days wash-out between treatment cycles.
On scheduled test days, animals were monitored remotely via video camera during the feeding access period. The occurrence of four mutually exclusive behaviors (eating/drinking, grooming, active, rest) were individually scored. Over the 2 h feeding period, behaviors were assessed every 30 seconds. Scores were compiled into 23 5 min timebins (timebin 24 was removed due to early removal of animals) and the frequency of each behavior within each timebin was calculated to determine a temporal frequency of each measure (Rodgers et al, 2010, Pharmacology Biochemistry and Behaviour. 97: 3-14). Percentage time was plotted for each behavioral sequence in each timebin to compare between treatment groups (Higgins et al, 2011, Neuropsychopharmacology. 37(5): 1177-1191).

[1] = 0.1 mg/kg, raw score per animal LT-1 to LT-12
[2] = 0.3 mg/kg, raw score per animal LT-1 to LT-12

Clc1ccc(C2(OCC3OCCO3)c3ccccc3C3=NCCN32)cc1 (stereo not drawn) [Compound I-19]
BSS scoring A (active), Time Bin 13 (60-65 TOTAL), AVG (0.1 mg/kg): 0.20
BSS scoring A (active), Time Bin 14 (65-70 TOTAL), AVG (0.1 mg/kg): 0.10
BSS scoring A (active), Time Bin 15 (70-75 TOTAL), AVG (0.1 mg/kg): 0.13
BSS scoring A (active), Time Bin 16 (75-80 TOTAL), AVG (0.1 mg/kg): 0.23
BSS scoring A (active), Time Bin 17 (80-85 TOTAL), AVG (0.1 mg/kg): 0.36
BSS scoring A (active), Time Bin 18 (85-90 TOTAL), AVG (0.1 mg/kg): 0.22
BSS scoring E (eating/drinking), Time Bin 13 (60-65 TOTAL), AVG (0.1 mg/kg): 0.74
BSS scoring E (eating/drinking), Time Bin 14 (65-70 TOTAL), AVG (0.1 mg/kg): 0.83
BSS scoring E (eating/drinking), Time Bin 15 (70-75 TOTAL), AVG (0.1 mg/kg): 0.83
BSS scoring E (eating/drinking), Time Bin 16 (75-80 TOTAL), AVG (0.1 mg/kg): 0.63
BSS scoring E (eating/drinking), Time Bin 17 (80-85 TOTAL), AVG (0.1 mg/kg): 0.58
BSS scoring E (eating/drinking), Time Bin 18 (85-90 TOTAL), AVG (0.1 mg/kg): 0.71
BSS scoring G (grooming), Time Bin 13 (60-65 TOTAL), AVG (0.1 mg/kg): 0.03
BSS scoring G (grooming), Time Bin 14 (65-70 TOTAL), AVG (0.1 mg/kg): 0.05
BSS scoring G (grooming), Time Bin 15 (70-75 TOTAL), AVG (0.1 mg/kg): 0.01
BSS scoring G (grooming), Time Bin 16 (75-80 TOTAL), AVG (0.1 mg/kg): 0.05
BSS scoring G (grooming), Time Bin 17 (80-85 TOTAL), AVG (0.1 mg/kg): 0.05
BSS scoring G (grooming), Time Bin 18 (85-90 TOTAL), AVG (0.1 mg/kg): 0.02
BSS scoring R (resting), Time Bin 13 (60-65 TOTAL), AVG (0.1 mg/kg): 0.03
BSS scoring R (resting), Time Bin 14 (65-70 TOTAL), AVG (0.1 mg/kg): 0.02
BSS scoring R (resting), Time Bin 15 (70-75 TOTAL), AVG (0.1 mg/kg): 0.03
BSS scoring R (resting), Time Bin 16 (75-80 TOTAL), AVG (0.1 mg/kg): 0.08
BSS scoring R (resting), Time Bin 17 (80-85 TOTAL), AVG (0.1 mg/kg): 0.02
BSS scoring R (resting), Time Bin 18 (85-90 TOTAL), AVG (0.1 mg/kg): 0.06
BSS scoring A (active), Time Bin 13 (60-65 TOTAL) [1]: 0 (5×) and 4 (2×) and 5 and 1 (3×) and 8
BSS scoring A (active), Time Bin 14 (65-70 TOTAL) [1]: 0 (6×) and 1 (2×) and 4 and 2 (3×)
BSS scoring A (active), Time Bin 15 (70-75 TOTAL) [1]: 5 and 3 (3×) and 0 (7×) and 2
BSS scoring A (active), Time Bin 16 (75-80 TOTAL) [1]: 4 (3×) and 3 and 5 (2×) and 0 (4×) and 2 and 1
BSS scoring A (active), Time Bin 17 (80-85 TOTAL) [1]: 0 (3×) and 3 and 9 (2×) and 1 and 6 and 5 and 4 (2×) and 2
BSS scoring A (active), Time Bin 18 (85-90 TOTAL) [1]: 0 (4×) and 1 (2×) and 7 and 3 and 5 (2×) and 2 (2×)
BSS scoring E (eating/drinking), Time Bin 13 (60-65 TOTAL) [1]: 8 (4×) and 5 (2×) and 6 and 10 (3×) and 9 and 2
BSS scoring E (eating/drinking), Time Bin 14 (65-70 TOTAL) [1]: 10 (3×) and 8 (3×) and 9 (3×) and 5 and 7 (2×)
BSS scoring E (eating/drinking), Time Bin 15 (70-75 TOTAL) [1]: 5 and 7 (2×) and 10 (4×) and 9 (3×) and 6 and 8
BSS scoring E (eating/drinking), Time Bin 16 (75-80 TOTAL) [1]: 6 (3×) and 3 (3×) and 10 and 9 (2×) and 8 (2×) and 4
BSS scoring E (eating/drinking), Time Bin 17 (80-85 TOTAL) [1]: 10 (2×) and 7 and 0 and 9 (2×) and 3 and 4 and 5 (2×) and 6 and 2
BSS scoring E (eating/drinking), Time Bin 18 (85-90 TOTAL) [1]: 10 (4×) and 8 (2×) and 7 (3×) and 0 and 5 and 3
BSS scoring G (grooming), Time Bin 13 (60-65 TOTAL) [1]: 0 (9×) and 1 (3×)
BSS scoring G (grooming), Time Bin 14 (65-70 TOTAL) [1]: 0 (6×) and 1 (6×)
BSS scoring G (grooming), Time Bin 15 (70-75 TOTAL) [1]: 0 (11×) and 1
BSS scoring G (grooming), Time Bin 16 (75-80 TOTAL) [1]: 0 (9×) and 4 and 1 (2×)
BSS scoring G (grooming), Time Bin 17 (80-85 TOTAL) [1]: 0 (7×) and 1 (4×) and 2
BSS scoring G (grooming), Time Bin 18 (85-90 TOTAL) [1]: 0 (10×) and 1 (2×)
BSS scoring R (resting), Time Bin 13 (60-65 TOTAL) [1]: 2 and 0 (9×) and 1 (2×)
BSS scoring R (resting), Time Bin 14 (65-70 TOTAL) [1]: 0 (10×) and 1 (2×)
BSS scoring R (resting), Time Bin 15 (70-75 TOTAL) [1]: 0 (9×) and 1 (3×)
BSS scoring R (resting), Time Bin 16 (75-80 TOTAL) [1]: 0 (5×) and 2 and 3 and 1 (5×)
BSS scoring R (resting), Time Bin 17 (80-85 TOTAL) [1]: 0 (10×) and 1 (2×)
BSS scoring R (resting), Time Bin 18 (85-90 TOTAL) [1]: 0 (7×) and 1 (4×) and 3
BSS scoring A (active), Time Bin 13 (60-65 TOTAL), AVG (0.3 mg/kg): 0.09
BSS scoring A (active), Time Bin 14 (65-70 TOTAL), AVG (0.3 mg/kg): 0.13
BSS scoring A (active), Time Bin 15 (70-75 TOTAL), AVG (0.3 mg/kg): 0.32
BSS scoring A (active), Time Bin 16 (75-80 TOTAL), AVG (0.3 mg/kg): 0.13
BSS scoring A (active), Time Bin 17 (80-85 TOTAL), AVG (0.3 mg/kg): 0.17
BSS scoring A (active), Time Bin 18 (85-90 TOTAL), AVG (0.3 mg/kg): 0.23
BSS scoring E (eating/drinking), Time Bin 13 (60-65 TOTAL), AVG (0.3 mg/kg): 0.81
BSS scoring E (eating/drinking), Time Bin 14 (65-70 TOTAL), AVG (0.3 mg/kg): 0.80
BSS scoring E (eating/drinking), Time Bin 15 (70-75 TOTAL), AVG (0.3 mg/kg): 0.56
BSS scoring E (eating/drinking), Time Bin 16 (75-80 TOTAL), AVG (0.3 mg/kg): 0.79
BSS scoring E (eating/drinking), Time Bin 17 (80-85 TOTAL), AVG (0.3 mg/kg): 0.69
BSS scoring E (eating/drinking), Time Bin 18 (85-90 TOTAL), AVG (0.3 mg/kg): 0.62
BSS scoring G (grooming), Time Bin 13 (60-65 TOTAL), AVG (0.3 mg/kg): 0.03
BSS scoring G (grooming), Time Bin 14 (65-70 TOTAL), AVG (0.3 mg/kg): 0.03
BSS scoring G (grooming), Time Bin 15 (70-75 TOTAL), AVG (0.3 mg/kg): 0.04
BSS scoring G (grooming), Time Bin 16 (75-80 TOTAL), AVG (0.3 mg/kg): 0.01
BSS scoring G (grooming), Time Bin 17 (80-85 TOTAL), AVG (0.3 mg/kg): 0.05
BSS scoring G (grooming), Time Bin 18 (85-90 TOTAL), AVG (0.3 mg/kg): 0.10
BSS scoring R (resting), Time Bin 13 (60-65 TOTAL), AVG (0.3 mg/kg): 0.07
BSS scoring R (resting), Time Bin 14 (65-70 TOTAL), AVG (0.3 mg/kg): 0.05
BSS scoring R (resting), Time Bin 15 (70-75 TOTAL), AVG (0.3 mg/kg): 0.08
BSS scoring R (resting), Time Bin 16 (75-80 TOTAL), AVG (0.3 mg/kg): 0.08
BSS scoring R (resting), Time Bin 17 (80-85 TOTAL), AVG (0.3 mg/kg): 0.09
BSS scoring R (resting), Time Bin 18 (85-90 TOTAL), AVG (0.3 mg/kg): 0.06
BSS scoring A (active), Time Bin 13 (60-65 TOTAL) [2]: 0 (7×) and 2 and 3 and 1 (2×) and 4
BSS scoring A (active), Time Bin 14 (65-70 TOTAL) [2]: 1 (4×) and 3 and 0 (6×) and 8
BSS scoring A (active), Time Bin 15 (70-75 TOTAL) [2]: 0 (2×) and 4 (2×) and 6 and 8 and 1 (2×) and 3 (3×) and 5
